Assay results published in patent EP4623912A1, “A METHOD FOR DEFATTENING A STEATOTIC LIVER EX VIVO” (ETH Zurich, priority 2024, dated 2025).
Where a SMILES comes first, the peptide text is derived from it. The star is where a group is joined. Cbz = O=C(OCc1ccccc1)*

Key:
ATGL [1] = test: ATGL response to glucose deprivation in HepG2 cells after BFA treatment; type: cell-based, human; conditions: HepG2, 5 µg/mL BFA for 6 hours before glucose deprivation
Experimental: (§1) HepG2 cell type was cultured in RPMI medium with 10% FBS and 1% Pen/Strep on collagen-coated plates. Lipofectamine RNAiMAX reagent mediated siRNA (100 nM) was delivered to cells at the suspended state for 48 h. Different from HEK cells, it is not necessary to induce LDs via OA treatment in that there exist LDs in the HepG2 cell type at normal culture medium. The inventors treated HepG2 cells with 10 µM PF04620110 (DGAT1 inhibitor, Sigma) & PF-06424439 (DGAT2 inhibitor, Sigma) for 48 hours or with 5 µg/mL BFA (B5936, Sigma) for 6 hours to deplete LDs and intact Golgi in the HepG2 cell type respectively before glucose deprivation. To deprive glucose in the HepG2 cell type, we either added 2-DG at indicated concentrations to the culture medium or refresh cells with RPMI medium containing different glucose concentrations prepared from the same RPMI medium (Gibco, 11879020).
(§2) Adipose depots, liver pieces, differentiated iBAs, HepG2, HEK293T and HEK293-AAV cell types were homogenized in RIPA buffer (50 mM Tris-HCl pH 7.4, 150 mM NaCl, 2 mM EDTA, 1.0% Triton X100, 0.5% sodium deoxycholate) with protease inhibitors (Complete, Roche) and phosphatase inhibitors (Halt phosphatase inhibitor cocktail, ThermoFisher). […] The concentration of WCE was determined by DC Protein Assay (Bio-Rad). […]

C57BL/6N male mice = test: Glucose deprivation by 2-DG injection in mice; type: in vivo, mouse
Experimental: All animal experiments were permitted by the Veterinary office of the Canton of Zurich. Both female and male mice were used in the experiments, and they were housed 2-5 littermates per cage in ventilated cages at standard housing conditions (22°C, 12 h reversed light/dark cycle, dark phase starting at 7 am) with normal chow diet (18% proteins, 4.5% fibers, 4.5% fat, 6.3% ashes, Provimi Kliba SA) and water. Health status of all the mouse lines were monitored regularly based on FELASA guidelines. 8-10 weeks old C57BL/6N male mice were fasted for 24 h or injected with 2-DG (2 g/kg BW) to induce glucose deprivation for different durations. Female ROSA26-LSL-spCas9 mice (The Jackson Lab strain) were intravenously injected with AAV8-U6-Pi4kb gRNAs-TBG-Cre, AAV8-U6-Sacm1l gRNAs-TBG-Cre, AAV8-U6-Cu/7 gRNAs-TBG-Cre and AAV8-U6-Fbxw8 gRNAs-TBG-Cre virus pools to express six gRNAs targeting individual gene and CAS9 in the liver at a dose of 3×10^11 genome copies/mouse. Two weeks later, livers were harvested for protein and RNA extraction after 6 hours fasting. To determine liver TG levels under NCD feeding condition, 4 weeks after AAV administration livers were harvested after 6 hours fasting. Also 4 weeks after AAV administration, the liver specific Cul7&Fbxw8 double knockout mice were injected with 2-DG (2 g/kg BW) to induce 1 hour glucose deprivation prior to liver harvesting for protein extraction.
Adipose depots, liver pieces, differentiated iBAs, HepG2, HEK293T and HEK293-AAV cell types were homogenized in RIPA buffer (50 mM Tris-HCl pH 7.4, 150 mM NaCl, 2 mM EDTA, 1.0% Triton X100, 0.5% sodium deoxycholate) with protease inhibitors (Complete, Roche) and phosphatase inhibitors (Halt phosphatase inhibitor cocktail, ThermoFisher). The homogenates were centrifuged at 12,000×g for 10 min at 4°C to remove debris and collect whole cell extract (WCE). The concentration of WCE was determined by DC Protein Assay (Bio-Rad). After boiling the sample with Lämmeli buffer at 95°C for 5 min, equal amount of proteins was loaded and separated on 12% SDS-PAGE. The proteins were transferred to nitrocellulose membrane and blotted by ATGL (1:1000, Cell Signaling), CGI-58 (1:1000, Proteintech), phospho-HSL(Ser660) (1:1000, Cell Signaling), PLIN1 (1:1000, Cell Signaling), HSL (1:1000, Cell Signaling), γ-tubulin (1:10000, Sigma), FLAG (1:10000, Sigma; 1:1000, Cell Signaling), MGL (1:1000, Abcam), HA (1:1000, Cell signaling), FBXW8 (1:100, Santa Cruz; 1:1000, Sigma), CUL7 (1:100, Santa Cruz), HSP90 (1:1000, Cell Signaling), K48 polyubiquitin (1:1000, Cell signaling), PI4KB (1:1000, Sigma), SACM1L (1:1000, Sigma), AKT1 (1:1000, Cell Signaling), phospho-AKT1(Ser473) (1:1000, Cell Signaling), TGN46 (1:1000, Abcam), MAOA (1:1000, Abcam), PLIN2 (1:1000, Abcam), PMP70 (1:10000, Sigma), Calnexin (1:1000, Cell Signaling), ARF1 (1:1000, Invitrogen), GAPDH (1:1000, Cell Signaling), RAB7 (1:1000, Cell Signaling), alpha 1 Sodium Potassium ATPase (1:1000, Abcam), Cleaved Caspase-3 (1:1000, Cell Signaling), phospho-AMPKα (Thr172) (1:1000, Cell Signaling), AMPKα (1:1000, Cell Signaling) and GM130 (1:1000, Proteintech). The primay antibody signal was visualized by HRP-conjugated secondary antibodies (1:5000, Millipore) and the ImageQuant system (GE Healthcare Life Sciences).
For mouse insulin measurement, plasma was collected at different timepoints after 2-DG administration in wild type mice. 5 µl plasma sample was used to determine insulin levels via Ultra-sensitive mouse insulin ELISA kit (Crystal Chem, Cat# 90080) according to the manufacturer's protocol. The absorbance was measured via Synergy Gen5 Platereader at 450/630 nm. 2 µl plasma sample was used to determine glucose levels via Glucose Assay Kit (Sigma, MAK263) according to the manufacturer's protocol. The absorbance was read at 570 nm in Synergy Gen5 Platereader.
Plasma collected from mice under different conditions was used to determine levels of lipolysis and liver injury. […]

ATGL [2] = test: ATGL in HepG2 cells after 2-DG treatment; type: cell-based, human
Experimental: as §1, with “To deprive glucose in the HepG2 cell type, we either added 2-DG at indicated concentrations to the culture medium or refresh cells with RPMI medium containing different glucose concentrations prepared from the same RPMI medium (Gibco, 11879020).” left out
Total RNA was extracted from adipose depots, liver or in vitro cell cultures via Trizol reagent (Invitrogen) according to the manufacturer's instructions. […] Quantitative PCR was performed using KAPA SYBR FAST Universal kit (Roche, KK4618) on ViiA7 (Applied Biosystems) and the relative transcript levels were normalized to […] expression via ΔΔCt method. […]
as §2

ATGL [3] = test: Block of proteasome mediated degradation, cellular ATGL protein; type: cell-based; conditions: proteasome blocked; Chloroquine (autophagy) had no such effect
[4] = only 1 hour after 2-DG administration

SMILES: C[C@H]1CCC/C=C/[C@@H]2C[C@H](O)C[C@H]2[C@H](O)/C=C/C(=O)O1 [BFA, Brefeldin A]
- intracellular ATGL levels upon glucose deprivation (ATGL [1]): failed to upregulate

SMILES: O=CC[C@@H](O)[C@H](O)[C@H](O)CO [2-DG, 2-Deoxy-D-glucose]
- lipolysis (plasma FFA levels) (C57BL/6N male mice; 2-DG 2 g/kg BW, 1 h, 6 h, 12 h (Fig. 1c)): significantly induced
- ATGL levels in livers of wild-type mice (C57BL/6N male mice; 2-DG for 1 hour, not in Cul7 and Fbxw8 double knockout (Fig. 6c)): upregulation
- ATGL protein levels in the liver and iBAT (C57BL/6N male mice; 1 hour after 2-DG): increased
- ATGL protein levels in the liver, iBAT, iWAT and gWAT (C57BL/6N male mice; longer glucose deprivation (6 h, 12 h after 2-DG)): further accumulation
- HSL phosphorylation in white adipose tissues (C57BL/6N male mice; [4]): upregulation
- plasma insulin levels (C57BL/6N male mice; [4]): reduction
- ATGL protein abundance (ATGL [2]; HepG2, 50 mM 2-DG (Fig. 2b)): strongly induced
- ATGL transcript levels (ATGL [2]; HepG2, 2-DG treatment): without changing

SMILES: CC(C)C[C@@H](C=O)NC(=O)[C@H](CC(C)C)NC(=O)[C@H](CC(C)C)NC(=O)OCc1ccccc1 [MG132] (Cbz-Leu-Leu-Leu-aldehyde)
- cellular ATGL protein (ATGL [3]): accumulation
